Measurements taken from ChEMBL document CHEMBL2311354, “C-3 halo and 3-methyl substituted 5'-nor-3-deazaaristeromycins: synthesis and antiviral properties” (Bioorg Med Chem, 2013).
The source made the active and inactive calls. No cut-off for these calls is given here.

Legend:
[1] = tested on: Cowpox virus; assay: Antiviral activity against Cowpox virus infected in human HFF cells assessed as reduction of viral replication; format: functional, organism-based
[2] = tested on: Enterovirus; assay: Antiviral activity against Rhinovirus infected in human HeLa Ohio1 cells assessed as reduction of viral replication; format: functional, organism-based
[3] = tested on: Yellow fever virus; assay: Antiviral activity against Yellow fever virus infected in african green monkey Vero cells assessed as reduction of viral replication; format: functional, organism-based
[4] = tested on: West Nile virus; assay: Antiviral activity against West Nile virus infected in african green monkey Vero cells assessed as reduction of viral replication; format: functional, organism-based
[5] = tested on: Dengue virus; assay: Antiviral activity against Dengue virus infected in african green monkey Vero cells assessed as reduction of viral replication; format: functional, organism-based
[6] = tested on: Rift Valley fever virus; assay: Antiviral activity against Rift Valley fever virus infected in african green monkey Vero 76 cells assessed as reduction of viral replication; format: functional, organism-based
[7] = tested on: Tacaribe virus; assay: Antiviral activity against Tacaribe virus infected in african green monkey Vero 76 cells assessed as reduction of viral replication; format: functional, organism-based; settings: Mammarenavirus tacaribeense
[8] = tested on: Influenza B virus; assay: Antiviral activity against influenza B virus infected in MDCK cells assessed as reduction of viral replication; format: functional, organism-based
[9] = tested on: Influenza A virus; assay: Antiviral activity against influenza A virus H5N1 infected in MDCK cells assessed as reduction of viral replication; format: functional, organism-based
[10] = tested on: Human alphaherpesvirus 3; assay: Antiviral activity against Varicella-zoster virus infected in human HFF cells assessed as reduction of viral replication; format: functional, organism-based; settings: for EC50: Human alphaherpesvirus 3, HFF
[11] = tested on: Mammalian orthoreovirus 1; assay: Antiviral activity against Reovirus 1 infected in african green monkey Vero cells assessed as reduction of viral replication; format: functional, organism-based; settings: for EC50: Mammalian orthoreovirus 1, Vero
[12] = tested on: Measles morbillivirus; assay: Antiviral activity against Measles virus infected in african green monkey CV1 cells assessed as reduction of viral replication; format: functional, organism-based; settings: CV-1
[13] = tested on: Human respirovirus 3; assay: Antiviral activity against Human parainfluenzae virus 3 infected in african green monkey Vero cells assessed as reduction of viral replication; format: functional, organism-based; settings: for EC50: Human respirovirus 3, Vero
[14] = tested on: Hepatitis B virus; assay: Antiviral activity against Hepatitis B virus infected in human HepG 2.215 cells assessed as reduction of viral replication; format: functional, organism-based; settings: for EC50: HepG2.2.15
[15] = tested on: Vesicular stomatitis virus; assay: Antiviral activity against Vesicular stomatitis virus infected in human HEL cells assessed as reduction of viral replication; format: functional, organism-based
[16] = tested on: Vaccinia virus; assay: Antiviral activity against Vaccinia virus infected in human HEL cells assessed as reduction of viral replication; format: functional, organism-based; settings: Orthopoxvirus vaccinia
[17] = tested on: Cytomegalovirus; assay: Antiviral activity against human cytomegalovirus infected in human HFF cells assessed as reduction of viral replication; format: functional, organism-based; settings: for EC50: Human betaherpesvirus 5, HFF
[18] = tested on: Punta Toro virus; assay: Antiviral activity against Punta Toro virus infected in african green monkey Vero cells assessed as reduction of viral replication; format: functional, organism-based
[19] = tested on: Human immunodeficiency virus 2; assay: Antiviral activity against HIV2 infected in human CEM cells assessed as reduction of viral replication; format: functional, organism-based; settings: CCRF-CEM
[20] = tested on: Human immunodeficiency virus 1; assay: Antiviral activity against HIV1 infected in human CEM cells assessed as reduction of viral replication; format: functional, organism-based; settings: CCRF-CEM
[21] = tested on: Influenza A virus; assay: Antiviral activity against influenza A H3N2 infected in MDCK cells assessed as reduction of viral replication; format: functional, organism-based
[22] = tested on: Feline coronavirus; assay: Antiviral activity against Feline coronavirus infected in cat CRFK cells assessed as reduction of viral replication; format: functional, organism-based
[23] = tested on: Influenza A virus; assay: Antiviral activity against influenza A H1N1 infected in MDCK cells assessed as reduction of viral replication; format: functional, organism-based
[24] = tested on: Human alphaherpesvirus 2; assay: Antiviral activity against HSV2 infected in human HEL cells assessed as reduction of viral replication; format: functional, organism-based
[25] = tested on: Human alphaherpesvirus 1; assay: Antiviral activity against HSV1 infected in human HEL cells assessed as reduction of viral replication; format: functional, organism-based
[26] = tested on: Sindbis virus; assay: Antiviral activity against Sindbis virus infected in african green monkey Vero cells assessed as reduction of viral replication; format: functional, organism-based
[27] = tested on: Coxsackievirus B4; assay: Antiviral activity against Human coxsackievirus B4 infected in african green monkey Vero cells assessed as reduction of viral replication; format: functional, organism-based
[28] = tested on: Human gammaherpesvirus 4; assay: Antiviral activity against Epstein-Barr virus infected in human HFF cells assessed as reduction of viral replication; format: functional, organism-based
[29] = tested on: Respiratory syncytial virus; assay: Antiviral activity against Respiratory syncytial virus infected in monkey MA104 cells assessed as reduction of viral replication; format: functional, organism-based
[30] = tested on: unidentified adenovirus; assay: Antiviral activity against Adenovirus infected in human A549 cells assessed as reduction of viral replication; format: functional, organism-based
[31] = Selectivity index, ratio of CC50 for MDCK cells to EC50 for influenza B virus; format: toxicity, cell-based; settings: dog, read-out: Ratio CC50/EC50
[32] = Selectivity index, ratio of CC50 for human HFF cells to EC50 for Varicella-zoster virus; format: toxicity, cell-based; settings: read-out: Ratio CC50/EC50
[33] = Selectivity index, ratio of CC50 for human HepG2.215 cells to EC50 for Hepatitis B virus; format: toxicity; settings: read-out: Ratio CC50/EC50
[34] = Selectivity index, ratio of CC50 for human HFF cells to EC50 for human cytomegalovirus; format: toxicity, cell-based; settings: read-out: Ratio CC50/EC50
[35] = Cytotoxicity against african green monkey Vero cells assessed as concentration required to cause microscopically alternation of cellular morphology; format: cell-based; settings: chlorocebus sabaeus
[36] = Cytotoxicity against human HEL cells assessed as concentration required to cause microscopically alternation of cellular morphology; format: cell-based
[37] = Cytotoxicity against MDCK cells assessed as reduction of cell viability; format: cell-based, Canis lupus familiaris; settings: dog
[38] = Cytotoxicity against human HepG2.215 cells assessed as reduction of cell viability; format: cell-based, HepG2 2.2.15
[39] = Cytotoxicity against african green monkey CV1 cells assessed as reduction of cell viability; format: cell-based, CV-1; settings: chlorocebus aethiops
[40] = Cytotoxicity against human HFF cells assessed as reduction of cell viability; format: cell-based
[41] = Selectivity index, ratio of CC50 for MDCK cells to EC50 for influenza A virus H5N1; format: toxicity, cell-based; settings: dog, read-out: Ratio CC50/EC50
[42] = Selectivity index, ratio of CC50 for african green monkey CV1 cells to EC50 for Measles virus; format: toxicity, cell-based, CV-1; settings: read-out: Ratio CC50/EC50

Cc1cnc(N)c2ncn([C@@H]3C[C@H](O)[C@@H](O)[C@H]3O)c12
Activity [1]: inactive | Activity [2]: inactive | Activity [3]: inactive | Activity [4]: inactive | Activity [5]: inactive | Activity [6]: inactive | Activity [7]: inactive | Activity [8]: inactive | Activity [9]: inactive | Activity [10]: inactive | Activity [11]: inactive | Activity [12]: inactive | Activity [13]: inactive | Activity [14]: inactive | Activity [15]: inactive | Activity [16]: inactive | Activity [17]: inactive | Activity [18]: inactive | Activity [19]: inactive | Activity [20]: inactive | Activity [21]: inactive | Activity [22]: inactive | Activity [23]: inactive | Activity [24]: inactive | Activity [25]: inactive | Activity [26]: inactive | Activity [27]: inactive | Activity [28]: inactive | Activity [29]: inactive | Activity [30]: inactive

Nc1ncc(Br)c2c1ncn2[C@@H]1C[C@H](O)[C@@H](O)[C@H]1O
Activity [1]: inactive | Activity [2]: inactive | Activity [3]: inactive | Activity [4]: inactive | Activity [5]: inactive | selectivity ratio [31]: > 100 | selectivity ratio [32]: > 2630 | selectivity ratio [33]: > 454 | selectivity ratio [34]: > 175 | Activity [6]: inactive | MCC [35]: > 8 µM | MCC [36]: > 200 µM | CC50 [37]: > 273 µM | Activity [7]: inactive | CC50 [38]: > 10 µM | CC50 [39]: > 273 µM | CC50 [40]: > 300 µM | EC50 [8]: 27 µM | EC50 [10]: 0.11 µM | EC50 [11]: 1.6 µM | EC50 [12]: > 273 µM | EC50 [13]: 8 µM | EC50 [14]: 0.022 µM | EC50 [15]: > 200 µM | EC50 [16]: 24 µM | EC50 [17]: 1.7 µM | EC50 [18]: > 8 µM | Activity [19]: inactive | Activity [20]: inactive | Activity [21]: inactive | Activity [22]: inactive | Activity [23]: inactive | Activity [24]: inactive | Activity [25]: inactive | Activity [26]: inactive | Activity [27]: inactive | Activity [28]: inactive | Activity [29]: inactive | Activity [30]: inactive

Nc1ncc(I)c2c1ncn2[C@@H]1C[C@H](O)[C@@H](O)[C@H]1O
Activity [1]: inactive | Activity [2]: inactive | Activity [3]: inactive | Activity [4]: inactive | Activity [5]: inactive | selectivity ratio [41]: > 6 | selectivity ratio [31]: > 111 | selectivity ratio [42]: 23 | selectivity ratio [32]: < 3.4 | selectivity ratio [33]: > 370 | selectivity ratio [34]: 182 | Activity [6]: inactive | MCC [35]: 100 µM | MCC [36]: > 100 µM | CC50 [37]: > 242 µM | Activity [7]: inactive | CC50 [38]: > 300 µM | CC50 [39]: 67 µM | CC50 [40]: 201 µM | EC50 [8]: 2.2 µM | EC50 [9]: 44 µM | EC50 [10]: > 60 µM | EC50 [11]: 4 µM | EC50 [12]: 2.9 µM | EC50 [13]: 20 µM | EC50 [14]: 0.808 µM | EC50 [15]: 4 µM | EC50 [16]: 4 µM | EC50 [17]: 1.2 µM | EC50 [18]: > 20 µM | Activity [19]: inactive | Activity [20]: inactive | Activity [21]: inactive | Activity [22]: inactive | Activity [23]: inactive | Activity [24]: inactive | Activity [25]: inactive | Activity [26]: inactive | Activity [27]: inactive | Activity [28]: inactive | Activity [29]: inactive | Activity [30]: inactive

Nc1ncc(Cl)c2c1ncn2[C@@H]1C[C@H](O)[C@@H](O)[C@H]1O
Activity [1]: inactive | Activity [2]: inactive | Activity [3]: inactive | Activity [4]: inactive | Activity [5]: inactive | selectivity ratio [41]: > 77 | selectivity ratio [31]: > 500 | selectivity ratio [42]: > 1730 | Activity [6]: inactive | MCC [35]: > 200 µM | MCC [36]: > 100 µM | CC50 [37]: > 311 µM | Activity [7]: inactive | CC50 [38]: > 300 µM | CC50 [39]: 311 µM | CC50 [40]: > 300 µM | EC50 [8]: 0.62 µM | EC50 [9]: 4 µM | EC50 [10]: > 300 µM | EC50 [11]: 1.6 µM | EC50 [12]: 0.18 µM | EC50 [13]: 1.6 µM | EC50 [14]: > 10 µM | EC50 [15]: 8 µM | EC50 [16]: 120 µM | EC50 [18]: 24 µM | Activity [19]: inactive | Activity [20]: inactive | Activity [21]: inactive | Activity [22]: inactive | Activity [23]: inactive | Activity [24]: inactive | Activity [25]: inactive | Activity [26]: inactive | Activity [27]: inactive | Activity [28]: inactive | Activity [29]: inactive | Activity [30]: inactive
